{"source": "the pKa sets of Baltruschat and Czodrowski (2020)", "note": "Values joined by “and” are separate entries in the source; they are usually repeats but may differ in a detail not shown here. Equal entries are not always repeated."}
{"smiles": "O=C(c1ccc(CN2CCOCC2)cc1)N1CCN(C2CCC2)CC1", "pKa": 6.5}
{"smiles": "CN(C)CCC1(Cc2ccc(C(C)(C)C)cc2)COC1", "pKa": 9.2}
{"smiles": "CN1CCN(Cc2ccccc2S(=O)(=O)c2csc(S(N)(=O)=O)c2)CC1.Cl", "pKa": 6.4}
{"smiles": "Cc1cnc(NCCc2ccccc2)c(=O)n1CC(=O)NCc1cnc(N)cn1", "pKa": 2.7}
{"smiles": "CCOC(=O)c1ccc(OS(N)(=O)=O)cc1", "pKa": 8.22}
{"smiles": "NS(=O)(=O)c1ccc(Nc2c3ccccc3nc3ccccc23)cc1", "pKa": 6.11}
{"smiles": "CS(=O)(=O)Nc1ccc(Nc2c3ccccc3nc3c(Cl)cccc23)cc1", "pKa": 5.92}
{"smiles": "CCc1ccccc1Nc1c2ccccc2nc2ccccc12", "pKa": 7.68}
{"smiles": "Cc1cc(C)c(N=C2NCCN2)c(C)c1", "pKa": 10.8}
{"smiles": "c1c[nH]nn1", "pKa": 1.17}
{"smiles": "O=c1[nH]c2cc(Cl)ccc2c(O)c1-c1ccccc1", "pKa": 5.4}
{"smiles": "O=C(NCC1CCCCN1)c1cc(OCC(F)(F)F)ccc1OCC(F)(F)F", "note": "(stereo not given)", "pKa": 9.3}
{"smiles": "Cc1cccc(Nc2c3ccccc3nc3ccccc23)c1", "pKa": 7.52}
{"smiles": "CN(C)CCCNc1ccnc2cccc([N+](=O)[O-])c12", "pKa": 6.39}
{"smiles": "COc1cc(NS(C)(=O)=O)ccc1Nc1c2ccccc2nc2c(C(N)=O)cccc12", "pKa": 6.37}
{"smiles": "COc1ccc(C(CCCN)(c2ccccc2)c2ccccc2)cc1", "pKa": 9.86}
{"smiles": "CN1CC[C@H](N(C)C(=O)N2CC(c3cc(F)ccc3F)=C[C@@]2(CO)c2ccccc2)[C@@H](F)C1", "pKa": 6.6}
{"smiles": "CN1CC(C)(c2cccc(NC(=O)c3ccc(Cl)cn3)c2)N=C(N)C1=O", "note": "(stereo not given)", "pKa": 7.6}
{"smiles": "CNc1ccc2c(Nc3ccc(NS(C)(=O)=O)cc3)c3ccccc3nc2c1", "pKa": 9.3}
{"smiles": "Cc1cnc(NCCc2ccccc2)c(=O)n1CC(=O)NCc1cnc(N)nc1", "pKa": 3.9}
{"smiles": "CS(=O)(=O)[O-].NC(=O)CCc1ccc(Nc2c3ccccc3[nH+]c3ccccc23)cc1", "pKa": 7.63}
{"smiles": "Cc1ncc2n1-c1ccc(Cl)cc1C(c1ccccc1F)=NC2", "pKa": 5.44}
{"smiles": "CS(=O)(=O)Nc1ccc(Nc2c3ccccc3nc3cc(Br)ccc23)cc1", "pKa": 6.56}
{"smiles": "COc1ccc2c(Nc3ccc(NS(C)(=O)=O)cc3)c3ccccc3nc2c1", "pKa": 7.57}
{"smiles": "COc1cc(Nc2c3ccccc3nc3ccccc23)ccc1NS(C)(=O)=O", "pKa": 7.03}
{"smiles": "CS(=O)(=O)Nc1ccc(Nc2c3ccccc3nc3ccccc23)cc1Cl", "pKa": 6.44}
{"smiles": "NC(=O)CCCc1ccc(Nc2c3ccccc3nc3ccccc23)cc1", "pKa": 7.67}
{"smiles": "Nc1nc2ccccc2[nH]1", "pKa": 7.5}
{"smiles": "O=C(C1CCN(c2ccncc2)CC1)N1CCN(S(=O)(=O)c2ccc(Br)cc2)CC1", "pKa": 9.2}
{"smiles": "CC(C)NC1=NS(=O)(=O)c2cc(Cl)ccc2N1", "pKa": 9.51}
{"smiles": "Clc1cccc(Cl)c1NC1=NCCN1", "pKa": 8.05}
{"smiles": "COc1cc(NS(C)(=O)=O)ccc1Nc1c2ccccc2nc2cc(C#N)ccc12", "pKa": 5.94}
{"smiles": "CSc1nccn1C", "pKa": 5.95}
{"smiles": "FC1(F)CCCNC1", "pKa": 7.4}
{"smiles": "COCC1CC(C(=O)NC[C@H]2CCCO2)CN(Cc2nc(N3CCOCC3)oc2C)C1", "note": "(stereo not given in full)", "pKa": 7.8}
{"smiles": "O=C(Nc1ccc(Nc2c3ccccc3nc3ccccc23)cc1)c1ccccc1", "pKa": 7.39}
{"smiles": "Cc1nc2c(OCc3ccccc3)cccn2c1N", "pKa": 6.81}
{"smiles": "CNc1cccc(Nc2c3ccccc3nc3ccccc23)c1", "pKa": 7.61}
{"smiles": "COC(=O)c1ccc(OS(N)(=O)=O)cc1", "pKa": 8.28}
{"smiles": "Cc1cnc(NCCc2ccccc2)c(=O)n1CC(=O)NC[C@H]1CN=C(N)NC1", "pKa": 14}
{"smiles": "c1ccc(Nc2c3ccccc3nc3ccccc23)nc1", "pKa": 6.32}
{"smiles": "COc1cc(Cl)c(N=C2NCCN2)c(Cl)c1", "pKa": 8.57}
{"smiles": "COc1ccc2c(c1)N(C[C@H](C)CN(C)C)c1ccccc1S2", "pKa": 9.19}
{"smiles": "CCCCN", "pKa": 10.7}
{"smiles": "Cc1cc(=O)n(-c2ccccc2)n1C", "pKa": 1.44}
{"smiles": "Cc1ccc2nc3ccccc3c(Nc3ccc(NS(C)(=O)=O)cc3)c2c1", "pKa": 7.23}
{"smiles": "Cc1cccc2c(Nc3ccc(NS(C)(=O)=O)cc3)c3ccccc3nc12", "pKa": 7.15}
{"smiles": "CN(C)C(C)(C)CCCc1ccc(C(C)(C)C)cc1", "pKa": 10.4}
{"smiles": "NC(N)=S", "pKa": 21.1}
{"smiles": "CN(C)CCNC(=O)c1cccc2c(N)c3ccccc3nc12", "pKa": 8.3}
{"smiles": "NCCCC(F)(F)F", "pKa": 9.7}
{"smiles": "COc1cc(NS(C)(=O)=O)ccc1Nc1c2ccccc2nc2c(Br)cccc12", "pKa": 6.09}
{"smiles": "O=C(Nc1ccccc1)Nc1ccc(Nc2c3ccccc3nc3ccccc23)cc1", "pKa": 7.67}
{"smiles": "Fc1ncc[nH]1", "pKa": 2.4}
{"smiles": "COC(=O)c1ccc(Nc2c3ccccc3nc3ccccc23)cc1", "pKa": 6.21}
{"smiles": "CS(=O)(=O)Nc1ccc(Nc2c3ccccc3nc3cc(Cl)ccc23)cc1", "pKa": 6.57}
{"smiles": "CSc1nc(N)c2ncn([C@@H]3O[C@H](COP(=O)(O)OP(=O)(O)CP(=O)(O)O)[C@@H](O)[C@H]3O)c2n1", "pKa": 8.4}
{"smiles": "CS(=O)(=O)Nc1ccc(Nc2c3ccccc3nc3cccc([N+](=O)[O-])c23)cc1", "pKa": 4.79}
{"smiles": "Cc1cc(Cl)cc(C)c1N=C1NCCN1", "pKa": 10.2}
{"smiles": "Ic1ccc(Nc2c3ccccc3nc3ccccc23)cc1", "pKa": 6.9}
{"smiles": "Cc1nc2c(C/C=C/c3ccccc3)cccn2c1CC#N", "pKa": 6}
{"smiles": "O=[N+]([O-])c1ccc(Nc2c3ccccc3nc3ccccc23)cc1", "pKa": 5.58}
{"smiles": "CCc1cccc2c3c([nH]c12)C(CC)(CC(=O)O)OCC3", "note": "(stereo not given)", "pKa": 4.7}
{"smiles": "CN(C)C1(CCCc2ccc(C(C)(C)C)cc2)COC1", "pKa": 7.2}
{"smiles": "Clc1ccc(N=C2NCCN2)c(Cl)c1", "pKa": 8.73}
{"smiles": "Cn1ccnc1Br", "pKa": 3.82}
{"smiles": "CNc1ncnc2c1ncn2Cc1ccccc1F", "pKa": 3.88}
{"smiles": "FC1CCNCC1", "pKa": 9.4}
{"smiles": "CN(C)CCCN1c2ccccc2Sc2ccccc21", "pKa": 9.4}
{"smiles": "O=c1n(CCCN2CCN(c3cccc(Cl)c3)CC2)nc2ccccn12", "pKa": "6.7 and 6.73 and 6.79"}
{"smiles": "NCC(F)F", "pKa": 7.3}
{"smiles": "CS(=O)(=O)c1ccc(Nc2c3ccccc3nc3ccccc23)cc1", "pKa": 5.81}
{"smiles": "Clc1cc(Br)cc(Cl)c1N=C1NCCN1", "pKa": 7.72}
{"smiles": "CC1=CN(c2ccc(S(N)(=O)=O)cc2)C(N2C=CN(C)C=C2)N1", "note": "(stereo not given)", "pKa": 7.11}
{"smiles": "c1nc[nH]n1", "pKa": 2.19}
{"smiles": "CS(=O)(=O)Nc1ccc(Nc2c3ccccc3nc3ccccc23)c(N)c1", "pKa": 7.65}
{"smiles": "O=C(O)CCc1ccccc1", "pKa": 4.64}
{"smiles": "Cc1cc(=O)oc2cc(O)ccc12", "pKa": 7.8}
{"smiles": "CS(=O)(=O)Nc1ccc(Nc2c3ccccc3nc3ccc(N)cc23)cc1", "pKa": 7.15}
{"smiles": "CN(c1ccc(Nc2c3ccccc3nc3ccccc23)cc1)S(C)(=O)=O", "pKa": 6.95}
{"smiles": "CCC1(c2ccccc2)C(=O)NC(=O)NC1=O", "pKa": 7.5}
{"smiles": "CC(=O)N[C@@H](Cc1cc(F)cc(F)c1)[C@H](O)CNC1(c2cccc(C(C)(C)C)c2)CC1", "pKa": 6.6}
{"smiles": "N[C@@H](CS)C(=O)O", "pKa": 8.3}
{"smiles": "NS(=O)(=O)CCc1ccc(Nc2c3ccccc3nc3ccccc23)cc1", "pKa": 7.43}
{"smiles": "CCCCOC(=O)c1ccc(OS(N)(=O)=O)cc1", "pKa": 8.07}
{"smiles": "O=P(O)(O)CCc1ccccc1", "pKa": 2.34}
{"smiles": "CCCCCOC(=O)c1ccc(OS(N)(=O)=O)cc1", "pKa": 8.47}
{"smiles": "Brc1ncc[nH]1", "pKa": 3.79}
{"smiles": "Cc1cc(Br)cc(C)c1N=C1NCCN1", "pKa": 10.2}
{"smiles": "CS(=O)(=O)Nc1ccc(Nc2c3ccccc3nc3cc(C#N)ccc23)cc1", "pKa": 5.75}
{"smiles": "CN/C(=N/CCSCc1nc[nH]c1C)NC#N", "pKa": "6.8 (3×) and 6.97 (2×)"}
{"smiles": "FC1(Cc2ccccc2)CCN(CCCc2c[nH]c3ccc(-n4cnnc4)cc23)CC1", "pKa": 8.8}
{"smiles": "COc1cc(NS(C)(=O)=O)ccc1Nc1c2ccccc2nc2c(C(=O)N(C)C)cccc12", "pKa": 6.16}
{"smiles": "Cc1ccc(NS(=O)(=O)Cc2ccccc2)c(=O)n1CC(=O)NCc1ccc(C(=N)N)cc1", "pKa": 10.2}
{"smiles": "Cc1nc2c(/C=C/Cc3ccccc3)cccn2c1CC#N", "pKa": 5.7}
{"smiles": "Cc1c(N(C)C)c(=O)n(-c2ccccc2)n1C", "pKa": 4.48}
{"smiles": "Cc1c2ccccc2nc2c(C(O)=NCCN(C)C)cccc12", "pKa": 4.34}
{"smiles": "COC(=O)C(c1ccccc1)C1CCCCN1", "note": "(stereo not given)", "pKa": 9.24}
{"smiles": "Cc1nc2c3c(ccn2c1CC#N)CCC(c1ccccc1)O3", "note": "(stereo not given)", "pKa": 6}
{"smiles": "CN1CCN2c3ncccc3Cc3ccccc3C2C1", "note": "(stereo not given)", "pKa": 7.3}
{"smiles": "CN(c1ccccc1Nc1c2ccccc2nc2ccccc12)S(C)(=O)=O", "pKa": 6.97}
{"smiles": "COc1cc(NS(C)(=O)=O)ccc1Nc1c2ccccc2nc2ccc(C)cc12", "pKa": 7.45}
{"smiles": "CCS(=O)(=O)Nc1ccc(Nc2c3ccccc3nc3ccccc23)cc1", "pKa": 7.19}
{"smiles": "CN(C)CCN=C(O)c1cccc2cc3ccccc3nc12", "pKa": 3.54}
{"smiles": "Brc1cccc(Br)c1N=C1NCCN1", "pKa": 7.8}
{"smiles": "Cn1ccnc1[N+](=O)[O-]", "pKa": 0.48}
{"smiles": "CS(=O)(=O)Nc1ccc(Nc2c3ccccc3nc3cc(I)ccc23)cc1", "pKa": 6.52}
{"smiles": "Cc1cnc(NCC(F)(F)c2ccc(F)cc2)c(=O)n1CC(=O)NCc1cnc(N)cn1", "pKa": 2.7}
{"smiles": "Cl.NS(=O)(=O)c1cc(S(=O)(=O)c2ccc(CN3CCOCC3)cc2)cs1", "pKa": 5.28}
{"smiles": "CS(=O)(=O)Nc1ccc(Nc2c3ccccc3nc3ccccc23)c(Cl)c1", "pKa": 6.34}
{"smiles": "CC(=O)c1ccc(Nc2c3ccccc3nc3ccccc23)cc1", "pKa": 6.12}
{"smiles": "NC(=O)CCc1ccc(Nc2c3ccccc3nc3ccccc23)cc1", "pKa": 7.63}
{"smiles": "CNC(=C[N+](=O)[O-])NCCSCc1csc(CN(C)C)n1", "pKa": 6.59}
{"smiles": "C/C(=N\\N=C(/S)N/N=C(\\S)Nc1cccc(C(F)(F)F)c1)c1ccccn1", "pKa": 6.79}
{"smiles": "CC12CC3CC(C1)CC(N)(C3)C2", "pKa": 10.6}
{"smiles": "CC(NCCC(c1ccccc1)c1ccccc1)c1ccccc1", "note": "(stereo not given)", "pKa": 9.04}
{"smiles": "CC(C)NCC(O)COc1ccc(CCNC(=O)NC(C)C)cc1", "note": "(stereo not given)", "pKa": 9.18}
{"smiles": "CC(=O)Nc1ccccc1Nc1c2ccccc2nc2ccccc12", "pKa": 7.24}
{"smiles": "CC(=O)Nc1ccc2c(Nc3ccc(NS(C)(=O)=O)cc3)c3ccccc3nc2c1", "pKa": 7.34}
{"smiles": "CN(C)C(=O)C1=C(C(=O)N(C)C)C2c3ccccc3C1c1ccccc12", "pKa": -2.68}
{"smiles": "COc1cc(NS(C)(=O)=O)ccc1Nc1c2ccccc2nc2cc(NC(C)=O)ccc12", "pKa": 7.56}
{"smiles": "CCn1c(=O)c2nc(-c3ccc(S(=O)(=O)NCCN(C)C)cc3)[nH]c2n(CC)c1=O", "pKa": 8}
{"smiles": "COc1cccc(S(=O)(=O)Nc2cccn(CC(=O)NCc3ccc(C(=N)N)cc3Cl)c2=O)c1", "pKa": 9.4}
{"smiles": "Cn1ccnc1N", "pKa": 8.54}
{"smiles": "COc1ccc([C@@H]2Sc3ccccc3N(CCN(C)C)C(=O)[C@@H]2OC(C)=O)cc1.Cl", "pKa": 8.06}
{"smiles": "O=C(O)CCCc1ccc(N(CCCl)CCCl)cc1", "pKa": 5.8}
{"smiles": "Oc1nsc2c1CCNC2", "pKa": 8.5}
{"smiles": "CN1CCN(Cc2ccc(S(=O)(=O)c3csc(S(N)(=O)=O)c3)cc2)CC1.Cl", "pKa": 7.4}
{"smiles": "Cc1ccc(NS(=O)(=O)Cc2ccccc2)c(=O)n1CC(=O)NCc1nc(CN)cs1", "pKa": 7.4}
{"smiles": "O=C(c1ccccc1)c1ccc2n1CCC2C(=O)O", "note": "(stereo not given)", "pKa": 3.5}
